Reference: publication PMC6891328, “Design, Synthesis and Biological Evaluation of Diosgenin-Amino Acid Derivatives with Dual Functions of Neuroprotection and Angiogenesis” (Molecules, 2019)
Several values for one entry are separate records, joined by “and”; a condition that tells them apart may be missing. Equal entries are not always repeated.

Test system: SH-SY5Y cells
Assay: not given
Settings: SH-SY5Y, compared with compounds with neutral amino acids

| SMILES | cytotoxicity seen in neuroprotective activity evaluation (in words) |
| --- | --- |
| CC1CCC2(OC1)OC1CC3C4CC=C5CC(OC(=O)C(N)CCCCN)CCC5(C)C4CCC3(C)C1C2C [DG-18, 3β-(L-lysine)-diosgenin] | higher cytotoxicity |

Same assay, conditions: read-out: EC50 (neuroprotection); SH-SY5Y damaged by TBHP, 24 h, MTT, n = 3

| SMILES | EC50 |
| --- | --- |
| CC1CCC2(OC1)OC1CC3C4CC=C5CC(OC(=O)C(Cc6ccccc6)NC(=O)OC(C)(C)C)CCC5(C)C4CCC3(C)C1C2C [DG-7, 3β-(N-Boc-L-phenylalanine)-diosgenin] | > 50 µM |
| CC1CCC2(OC1)OC1CC3C4CC=C5CC(OC(=O)CN(C)C(=O)OC(C)(C)C)CCC5(C)C4CCC3(C)C1C2C (stereo not drawn) [DG-3, 3β-(N-Boc-sarcosine)-diosgenin] | 15.2 ± 0.96 µM |
| CC(C)CC(NC(=O)OC(C)(C)C)C(=O)OC1CCC2(C)C(=CCC3C2CCC2(C)C3CC3OC4(CCC(C)CO4)C(C)C32)C1 [DG-5, 3β-(N-Boc-L-leucine)-diosgenin] | 9.51 ± 1.79 µM |
| CC1CCC2(OC1)OC1CC3C4CC=C5CC(OC(=O)C(C)N)CCC5(C)C4CCC3(C)C1C2C [DG-11, 3β-(L-alanine)-diosgenin] | > 50 µM |
| CC1CCC2(OC1)OC1CC3C4CC=C5CC(OC(=O)C(N)C(C)C)CCC5(C)C4CCC3(C)C1C2C [DG-17, 3β-(L-valine)-diosgenin] | > 50 µM |
| CCC(C)C(NC(=O)OC(C)(C)C)C(=O)OC1CCC2(C)C(=CCC3C2CCC2(C)C3CC3OC4(CCC(C)CO4)C(C)C32)C1 [DG-6, 3β-(N-Boc-L-isoleucine)-diosgenin] | 18.5 ± 1.87 µM |
| CC1CCC2(OC1)OC1CC3C4CC=C5CC(OC(=O)C(N)CCCCN)CCC5(C)C4CCC3(C)C1C2C [DG-18, 3β-(L-lysine)-diosgenin] | > 50 µM |
| CC1CCC2(OC1)OC1CC3C4CC=C5CC(OC(=O)C(CCCCNC(=O)OCc6ccccc6)NC(=O)OCc6ccccc6)CCC5(C)C4CCC3(C)C1C2C [DG-9, 3β-(N-Cbz-L-lysine)-diosgenin] | 36.2 ± 8.67 µM |
| C[C@@H]1CC[C@@]2(OC1)O[C@H]1C[C@H]3[C@@H]4CC=C5C[C@@H](O)CC[C@]5(C)[C@H]4CC[C@]3(C)[C@H]1[C@@H]2C [DG, diosgenin] | > 50 µM |
| CC1CCC2(OC1)OC1CC3C4CC=C5CC(OC(=O)C(N)Cc6ccccc6)CCC5(C)C4CCC3(C)C1C2C [DG-16, 3β-(L-phenylalanine)-diosgenin] | 11.4 µM and 11.2 µM |
| CC1CCC2(OC1)OC1CC3C4CC=C5CC(OC(=O)CN)CCC5(C)C4CCC3(C)C1C2C (stereo not drawn) [DG-10, 3β-(glycine)-diosgenin] | > 50 µM |
| CC1CCC2(OC1)OC1CC3C4CC=C5CC(OC(=O)C6CCCN6)CCC5(C)C4CCC3(C)C1C2C [DG-13, 3β-(L-proline)-diosgenin] | 7.22 ± 1.58 µM |
| CC(C)CC(N)C(=O)OC1CCC2(C)C(=CCC3C2CCC2(C)C3CC3OC4(CCC(C)CO4)C(C)C32)C1 [DG-14, 3β-(L-leucine)-diosgenin] | 32.6 ± 0.97 µM |
| CNCC(=O)OC1CCC2(C)C(=CCC3C2CCC2(C)C3CC3OC4(CCC(C)CO4)C(C)C32)C1 (stereo not drawn) [DG-12, 3β-(sarcosine)-diosgenin] | > 50 µM |
| CC1CCC2(OC1)OC1CC3C4CC=C5CC(OC(=O)C(NC(=O)OCc6ccccc6)C(C)C)CCC5(C)C4CCC3(C)C1C2C [DG-8, 3β-(N-Cbz-L-valine)-diosgenin] | 38.1 ± 6.68 µM |
| CC1=NN(c2ccccc2)C(=O)C1 [Edaravone, edaravone, reference compound] | 21.6 ± 3.04 µM |
| CC1CCC2(OC1)OC1CC3C4CC=C5CC(OC(=O)C6CCCN6C(=O)OC(C)(C)C)CCC5(C)C4CCC3(C)C1C2C [DG-4, 3β-(N-Boc-L-proline)-diosgenin] | 23.8 ± 6.83 µM |
| CC1CCC2(OC1)OC1CC3C4CC=C5CC(OC(=O)CNC(=O)OC(C)(C)C)CCC5(C)C4CCC3(C)C1C2C (stereo not drawn) [DG-1, 3β-(N-Boc-glycine)-diosgenin] | > 50 µM |
| CCC(C)C(N)C(=O)OC1CCC2(C)C(=CCC3C2CCC2(C)C3CC3OC4(CCC(C)CO4)C(C)C32)C1 [DG-15, 3β-(L-isoleucine)-diosgenin] | 6.86 ± 0.69 µM |

Same assay, conditions: read-out: EC50 (neuroprotection); SH-SY5Y damaged by TBHP, 24 h, MTT, n = 3; listed as diosgenin

| SMILES | EC50 |
| --- | --- |
| C[C@@H]1CC[C@@]2(OC1)O[C@H]1C[C@H]3[C@@H]4CC=C5C[C@@H](O)CC[C@]5(C)[C@H]4CC[C@]3(C)[C@H]1[C@@H]2C [DG, diosgenin] | > 40 µM |

Test system: H9c2 cells
Assay: Biosafety (cytotoxicity) evaluation on H9c2 cells (MTT)
Assay type: cell-based, rat
Settings: H9c2, 25 μM, MTT
Description: (§1) Compounds DG-13 and DG-15 dissolved in DMSO were added to each well with required concentrations (3.125, 6.25, 12.5, 25, 50 µM). Then the control group were treated with the same volume of medium. The non-administered group were not treated (no cells and no medium). Then the sterile plates were further incubated for 4 h, following MTT addition. After 4 h, supernatant liquor was removed into the waste and all of the wells were then placed into the fresh DMSO (0.15 mL). The absorbance was measured using BIORAD 550 spectrophotometer with the emission wavelengths of 490 nm. Each data was measured three times in parallel survival fraction of cells, calculated by the equation: [OD490 (Drug group) − OD490 (non-administered group)]/[OD490 (Control group) − OD490 (non-administered group)] ×100%.

| SMILES | survival rate |
| --- | --- |
| CC1CCC2(OC1)OC1CC3C4CC=C5CC(OC(=O)C6CCCN6)CCC5(C)C4CCC3(C)C1C2C [DG-13, 3β-(L-proline)-diosgenin] | 12% |

Same assay, conditions: H9c2, 3.125-50 μM, MTT

| SMILES | cytotoxicity (in words) |
| --- | --- |
| C[C@@H]1CC[C@@]2(OC1)O[C@H]1C[C@H]3[C@@H]4CC=C5C[C@@H](O)CC[C@]5(C)[C@H]4CC[C@]3(C)[C@H]1[C@@H]2C [DG, diosgenin] | toxic under all treated groups |
| CC1CCC2(OC1)OC1CC3C4CC=C5CC(OC(=O)C6CCCN6)CCC5(C)C4CCC3(C)C1C2C [DG-13, 3β-(L-proline)-diosgenin] | significantly enhanced compared with diosgenin |
| CCC(C)C(N)C(=O)OC1CCC2(C)C(=CCC3C2CCC2(C)C3CC3OC4(CCC(C)CO4)C(C)C32)C1 [DG-15, 3β-(L-isoleucine)-diosgenin] | no cytotoxicity |

Same assay, conditions: H9c2, concentrations below 25 μM

| SMILES | inhibitory effect on cells |
| --- | --- |
| CCC(C)C(N)C(=O)OC1CCC2(C)C(=CCC3C2CCC2(C)C3CC3OC4(CCC(C)CO4)C(C)C32)C1 [DG-15, 3β-(L-isoleucine)-diosgenin] | no inhibitory effect |

Test system: not listed separately
Assay: as above
Assay type: cell-based, rat
Settings: rat, H9c2 cells; H9c2, 50 μM, MTT; read-out: cell viability
Description: as §1

| SMILES | viability at 50 µM |
| --- | --- |
| C[C@@H]1CC[C@@]2(OC1)O[C@H]1C[C@H]3[C@@H]4CC=C5C[C@@H](O)CC[C@]5(C)[C@H]4CC[C@]3(C)[C@H]1[C@@H]2C [DG, diosgenin] | ~60% |

Test system: chorioallantoic membrane
Assay: Angiogenesis in chorioallantoic membrane (CAM) model
Assay type: in vivo, chicken
Settings: 1 mg/mL on gelatin sponge, new vessels inner diameter < 100 μm
Description: The CAM was examined as a predictive model for the angiogenic activity studies of compounds DG-15. The wide end of the fresh fertilized egg was placed upward in an incubator at 37 °C with a relative humidity of 60%. All the eggs were turned every two hours to prevent from sticking to each other. Compound DG-15 was dissolved with acetone at a concentration of 1 mg/mL and 4 mg/mL and then 5 µL solution was transferred to gelatin sponge using a pipette respectively. The sham treatment group was added to the same volume of saline. Disinfected with UV lamp for 30 min. After 7 days, the broader said of eggs was disinfected with 70% alcohol, then a 30-mm-diameter window was carefully opened in the shell to reduce the chamber pressure before removed the upper shell membrane with tweezers. In addition, the non-fertilized oocytes and unhealthy developed embryos were thrown away. Then the gelatin sponge was embedded into the allantoic membrane and the window was sealed with adhesive tape, with the eggs being returned to the incubator. The eggs were then incubated 3 days after administration, fixed with methanol-acetone (1:1) for 10 min and repeated four times. […] The vascular growth was analyzed with a dissecting microscope and counted by software of Image Professional Plus 5.0 software (Media Cybernetics, Inc, MD, USA)

| SMILES | increase of number of blood vessels |
| --- | --- |
| CCC(C)C(N)C(=O)OC1CCC2(C)C(=CCC3C2CCC2(C)C3CC3OC4(CCC(C)CO4)C(C)C32)C1 [DG-15, 3β-(L-isoleucine)-diosgenin] | 60.61% |

Same assay, conditions: 4 mg/mL on gelatin sponge, new vessels inner diameter < 100 μm

| SMILES | increase of number of blood vessels |
| --- | --- |
| CCC(C)C(N)C(=O)OC1CCC2(C)C(=CCC3C2CCC2(C)C3CC3OC4(CCC(C)CO4)C(C)C32)C1 [DG-15, 3β-(L-isoleucine)-diosgenin] | 80.30% |

Test system: not given
Assay: not given
Settings: not given

| SMILES | melting point |
| --- | --- |
| CC1CCC2(OC1)OC1CC3C4CC=C5CC(OC(=O)C(Cc6ccccc6)NC(=O)OC(C)(C)C)CCC5(C)C4CCC3(C)C1C2C [DG-7, 3β-(N-Boc-L-phenylalanine)-diosgenin] | 163.4 °C |
| CC1CCC2(OC1)OC1CC3C4CC=C5CC(OC(=O)C(C)N)CCC5(C)C4CCC3(C)C1C2C [DG-11, 3β-(L-alanine)-diosgenin] | 219.1 °C |
| CC1CCC2(OC1)OC1CC3C4CC=C5CC(OC(=O)C(N)C(C)C)CCC5(C)C4CCC3(C)C1C2C [DG-17, 3β-(L-valine)-diosgenin] | 139.1 °C |
| CC1CCC2(OC1)OC1CC3C4CC=C5CC(OC(=O)C(N)CCCCN)CCC5(C)C4CCC3(C)C1C2C [DG-18, 3β-(L-lysine)-diosgenin] | 189.4 °C |
| CC1CCC2(OC1)OC1CC3C4CC=C5CC(OC(=O)C(CCCCNC(=O)OCc6ccccc6)NC(=O)OCc6ccccc6)CCC5(C)C4CCC3(C)C1C2C [DG-9, 3β-(N-Cbz-L-lysine)-diosgenin] | 135.8 °C |
| CC1CCC2(OC1)OC1CC3C4CC=C5CC(OC(=O)CN)CCC5(C)C4CCC3(C)C1C2C (stereo not drawn) [DG-10, 3β-(glycine)-diosgenin] | 110.8 °C |
| CC(C)CC(N)C(=O)OC1CCC2(C)C(=CCC3C2CCC2(C)C3CC3OC4(CCC(C)CO4)C(C)C32)C1 [DG-14, 3β-(L-leucine)-diosgenin] | 154.4 °C |
| CNCC(=O)OC1CCC2(C)C(=CCC3C2CCC2(C)C3CC3OC4(CCC(C)CO4)C(C)C32)C1 (stereo not drawn) [DG-12, 3β-(sarcosine)-diosgenin] | 176 °C |
| CC1CCC2(OC1)OC1CC3C4CC=C5CC(OC(=O)C(C)NC(=O)OC(C)(C)C)CCC5(C)C4CCC3(C)C1C2C [DG-2, 3β-(N-Boc-L-alanine)-diosgenin] | 218.9 °C |
| CC1CCC2(OC1)OC1CC3C4CC=C5CC(OC(=O)C(NC(=O)OCc6ccccc6)C(C)C)CCC5(C)C4CCC3(C)C1C2C [DG-8, 3β-(N-Cbz-L-valine)-diosgenin] | 158.4 °C |
| CC1CCC2(OC1)OC1CC3C4CC=C5CC(OC(=O)C6CCCN6C(=O)OC(C)(C)C)CCC5(C)C4CCC3(C)C1C2C [DG-4, 3β-(N-Boc-L-proline)-diosgenin] | 183.4 °C |
| CC1CCC2(OC1)OC1CC3C4CC=C5CC(OC(=O)CNC(=O)OC(C)(C)C)CCC5(C)C4CCC3(C)C1C2C (stereo not drawn) [DG-1, 3β-(N-Boc-glycine)-diosgenin] | 218.7 °C |
| CCC(C)C(N)C(=O)OC1CCC2(C)C(=CCC3C2CCC2(C)C3CC3OC4(CCC(C)CO4)C(C)C32)C1 [DG-15, 3β-(L-isoleucine)-diosgenin] | 147.1 °C |

Test system: SH-SY5Y cells
Assay: Morphological observation of TBHP-damaged SH-SY5Y cells by Giemsa and DAPI staining
Assay type: cell-based, human
Settings: TBHP-damaged SH-SY5Y, 10, 20, 40 μM
Description: Afterwards, the medium containing compound DG-15 were added to the cultures for 24 h and the concentration range of the examined compounds was 10, 20 and 40 µM. Then 0.1 mL TBHP was used to damage cells and the plate was cultured for further 24 h. Removing the culture medium, washing twice with PBS and fixing cells with 2 mL methanol for 2 min and 1 mL paraformaldehyde for 15 min respectively and washed with fresh PBS again. Giemsa solution or DAPI was added to stain the fixed cells for 2 min and protected from light. Finally, the cells ware washed with water and were observed under inverted fluorescent microscope.

| SMILES | morphological change, DAPI staining | morphological change, Giemsa staining |
| --- | --- | --- |
| CCC(C)C(N)C(=O)OC1CCC2(C)C(=CCC3C2CCC2(C)C3CC3OC4(CCC(C)CO4)C(C)C32)C1 [DG-15, 3β-(L-isoleucine)-diosgenin] | the number of SH-SY5Y cells was increasingly larger | the typical signs for apoptosis were reduced |
